Experiments:
[1] = system: HCT116 MTAP knockout cells; assay: Human colon cancer HCT116 cell proliferation inhibition test (CellTiter-Glo, 6 days), MTAP knockout cells; type: cell-based; details: HCT-116, 144 h
Procedure: (§1) 1. HCT116 MTAP knockout and MTAP wild-type cells were plated in 96-well flat bottom plates, and cultured overnight with McCoy's 5A medium containing 10% fetal bovine serum+1% penicillin-streptomycin at 37° C. and 5% CO2.
(§2) 2. On the next day, the compound was dissolved with DMSO, diluted with DMSO and medium successively and transferred to the cell plate. The final concentration of the compound was 10 μM, the compound was diluted 4 times, with 9 concentration gradients, and DMSO control was added.
(§3) 3. Cells that have not been treated with the compound were removed. CellTiter-Glo Luminescent Cell Viability Assay (Promega) was used to detect cell viability, the operation was performed with reference to the package insert of the kit, and then the cell plate was placed on EnVision Multilabel Reader to detect the cold light signal.
(§4) 4. Meanwhile, the cell plate treated with the compound was cultured at 37° C. and 5% CO2 for 6 consecutive days.
(§5) 5. Then, CellTiter-Glo was also used to detect cell viability.
(§6) 6. Finally, the four-parameter dose-response curve module of GraphPad Prism v 9.2.0 software was used to plot the dose-response curve and calculate the IC50 for proliferation inhibition (unit: nM).

[2] = Pharmacokinetic assay in mice, blood-brain barrier penetration analysis (Kp); type: in vivo; details: male, mouse, ICR mice, PO single dose 10 mg/kg, brain vs plasma, read-out: Kp (4 h after administration)
Procedure: The purpose of this trial is to study the pharmacokinetic behavior of some compounds of the present invention, and the administration method is: ICR mice were orally administered (PO) a single dose, at a dose of 10 mg/kg.
ICR mice male N=3 original source: Shanghai Sippr-Bk Lab Animal Co., Ltd.
The compounds were weighed and dissolved in 20% PG+10% Solutol HS15+70% pH 3 citrate buffer, respectively, shaken well and sonicated to prepare colorless clear solutions. 9 mice were administered orally after an overnight fast. The dose was 10 mg/kg.
• 1) About 90 μL blood was collected via the submandibular vein per time point, heparin sodium anticoagulant was added, the sample was placed on ice after collection, and plasma was centrifuged within 1 hour (centrifugation conditions: 8,000 rpm, 6 minutes, 2-8° C.). • 2) The blood collection time points were 1, 4, and 24 h. The samples were stored in a refrigerator at −20° C. • 3) The plasma sample was 40 μL, 160 μL of ice-cold acetonitrile containing internal standard was added, vortexed for 3 minutes, and centrifuged at 11,000 rpm for 5 minutes. • 4) 100 μL of the supernatant was taken and added to 100 μL of water, 5 μL of the sample was taken and injected into LC/MS/MS for analysis.
AUC or concentration in brain or plasma measured by using the above method was used to calculate the Kp. Kp refers to the relationship between drug concentrations in brain and blood and is used to evaluate the ability of a drug to penetrate the blood-brain barrier. Post-dose Kp was calculated by the following formula: […]

[3] = system: HCT116 MTAP wild-type cells; assay: Human colon cancer HCT116 cell proliferation inhibition test (CellTiter-Glo, 6 days), MTAP wild-type cells; type: cell-based; details: HCT-116, 144 h
Procedure: as §1, §2, §3, §4, §5, §6

SMILES	IC50 [1]	Kp at 4 h [2]	IC50 [3]
CN(C(=O)c1ccc2nc(N)c3ccncc3c2c1)[C@@H]1COc2cc(C(F)(F)F)ccc21 [Reference Compound 2, reference compound]	25 nM	0.1	702 nM
Nc1nc2cc(Cl)c(C(=O)N(CC3CC3)[C@@H]3COc4cc(C(F)(F)F)ccc43)cc2c2cnccc12 [Example 235, (S)-5-amino-8-chloro-N-(cyclopropylmethyl)-N-(6-(trifluoromethyl)-2,3-dihydrobenzofuran-3-yl)benzo[c][2,6]naphthyridin-9-carboxamide]	21 nM	0.7	176 nM
Nc1nc2cc(Cl)c(C(=O)N(CC3CC3)[C@@H]3COc4nc(C(F)(F)F)ccc43)cc2c2cnccc12 [Example 232, (S)-5-amino-8-chloro-N-(cyclopropylmethyl)-N-(6-(trifluoromethyl)-2,3-dihydrofuro[2,3-b]pyridin-3-yl)benzo[c][2,6]naphthyridin-9-carboxamide]	10 nM		363 nM
Nc1nc2ccc(C(=O)N(CC3CC3)[C@@H]3COc4cc(C(F)(F)F)ccc43)cc2c2cnccc12 [Example 192, (S)-5-amino-N-(cyclopropylmethyl)-N-(6-(trifluoromethyl)-2,3-dihydrobenzofuran-3-yl)benzo[c][2,6]naphthyridin-9-carboxamide]	3.6 nM	0.4	79 nM
Cn1cc(N(C(=O)c2ccc3nc(N)c4c(cnn4C)c3c2)C2COc3cc(C(F)(F)F)ccc32)cn1 (stereo not shown) [Example 165, 4-amino-3-methyl-N-(1-methyl-1H-pyrazol-4-yl)-N-(6-(trifluoromethyl)-2,3-dihydrobenzofuran-3-yl)-3H-pyrazolo[3,4-c]quinolin-8-carboxamide]	35 nM		2510 nM
Cn1ccc(N(C(=O)c2cc3c(cc2F)nc(N)c2cnn(C)c23)[C@@H]2CCc3cc(C(F)(F)F)ccc32)n1 [Example 197, (R)-4-amino-7-fluoro-1-methyl-N-(1-methyl-1H-pyrazol-3-yl)-N-(5-(trifluoromethyl)-2,3-dihydro-1H-inden-1-yl)-1H-pyrazolo[4,3-c]quinolin-8-carboxamide]	0.9 nM		264 nM
Cn1cc(N(C(=O)c2cc3c(cc2F)nc(N)c2cnn(C)c23)[C@@H]2COc3cc(C(F)(F)F)ccc32)cn1 [Example 205, (S)-4-amino-7-fluoro-1-methyl-N-(1-methyl-1H-pyrazol-4-yl)-N-(6-(trifluoromethyl)-2,3-dihydrobenzofuran-3-yl)-1H-pyrazolo[4,3-c]quinolin-8-carboxamide]	0.8 nM		64 nM
C[C@H](c1ncccn1)N(C(=O)c1cc2c(cc1F)nc(N)c1cnn(C)c12)[C@@H]1CCc2cc(C(F)(F)F)ccc21 [Example 221, 4-amino-7-fluoro-1-methyl-N-((R)-1-(pyrimidin-2-yl)ethyl)-N-((R)-5-(trifluoromethyl)-2,3-dihydro-1H-inden-1-yl)-1H-pyrazolo[4,3-c]quinolin-8-carboxamide]	88 nM		1340 nM
Cn1ncc2c(N)nc3cc(F)c(C(=O)N(CC(F)(F)F)[C@H]4COc5cc(C(F)(F)F)ccc54)cc3c21 [Example 186, (R)-4-amino-7-fluoro-1-methyl-N-(2,2,2-trifluoroethyl)-N-(6-(trifluoromethyl)-2,3-dihydrobenzofuran-3-yl)-1H-pyrazolo[4,3-c]quinolin-8-carboxamide]	506 nM		> 10000 nM
Cn1cc(N(C(=O)c2cc3c(cc2F)nc(N)c2cnn(C)c23)[C@@H]2CCc3cc(C(F)(F)F)ccc32)cn1 [Example 229, (R)-4-amino-7-fluoro-1-methyl-N-(1-methyl-1H-pyrazol-4-yl)-N-(5-(trifluoromethyl)-2,3-dihydro-1H-inden-1-yl)-1H-pyrazolo[4,3-c]quinolin-8-carboxamide]	3 nM		61 nM
Nc1nc2ccc(C(=O)N(CC3CC3)[C@H]3COc4cc(C(F)(F)F)ccc43)cc2c2cnccc12 [Example 193, (R)-5-amino-N-(cyclopropylmethyl)-N-(6-(trifluoromethyl)-2,3-dihydrobenzofuran-3-yl)benzo[c][2,6]naphthyridin-9-carboxamide]	452 nM		9090 nM
Cn1cc(N(Cc2ccc(C(F)(F)F)cn2)C(=O)c2cc3c(cc2F)nc(N)c2cnn(C)c23)cn1 [compound 3, reference compound]	9 nM		278 nM
Nc1nc2ccc(C(=O)N(CC3CC3)C3CCc4cc(C(F)(F)F)ccc43)cc2c2cnccc12 (stereo not shown) [Example 108, 5-amino-N-(cyclopropylmethyl)-N-(5-(trifluoromethyl)-2,3-dihydro-1H-inden-1-yl)benzo[c][2,6]naphthyridin-9-carboxamide]	36 nM		1420 nM

Now from value to compound:

IC50 [1]	Kp at 4 h [2]	IC50 [3]	SMILES
20 nM	0.7	224 nM	Nc1nc2cc(F)c(C(=O)N(CC3CC3)[C@@H]3COc4cc(C(F)(F)F)ccc43)cc2c2cnccc12 [Example 234, (S)-5-amino-N-(cyclopropylmethyl)-8-fluoro-N-(6-(trifluoromethyl)-2,3-dihydrobenzofuran-3-yl)benzo[c][2,6]naphthyridin-9-carboxamide]
> 10000 nM		> 10000 nM	Cn1ncc2c(N)nc3cc(O)c(C(=O)N(c4nccs4)[C@@H]4CCc5cc(C(F)(F)F)ccc54)cc3c21 [Example 184, (R)-4-amino-7-hydroxy-1-methyl-N-(thiazol-2-yl)-N-(5-(trifluoromethyl)-2,3-dihydro-1H-inden-1-yl)-1H-pyrazolo[4,3-c]quinolin-8-carboxamide]
2 nM		36 nM	C[C@H]1OCc2c1c(N)nc1cc(F)c(C(=O)N(c3cnn(C)c3)[C@@H]3COc4cc(C(F)(F)F)ccc43)cc21 [Example 202, (R)-4-amino-7-fluoro-3-methyl-N-(1-methyl-1H-pyrazol-4-yl)-N-((S)-6-(trifluoromethyl)-2,3-dihydrobenzofuran-3-yl)-1,3-dihydrofuro[3,4-c]quinolin-8-carboxamide]
85 nM		1070 nM	CN(C(=O)c1ccc2nc(N)c3ccncc3c2c1)[C@@H]1CCc2cc(C(F)(F)F)ccc21 [Example 227, (R)-5-amino-N-methyl-N-(5-(trifluoromethyl)-2,3-dihydro-1H-inden-1-yl)benzo[c][2,6]naphthyridin-9-carboxamide]
15 nM		604 nM	Nc1nc2cc(F)c(C(=O)N(CC3CC3)[C@@H]3COc4nc(C(F)(F)F)ccc43)cc2c2cnccc12 [Example 231, (S)-5-amino-N-(cyclopropylmethyl)-8-fluoro-N-(6-(trifluoromethyl)-2,3-dihydrofuro[2,3-b]pyridin-3-yl)benzo[c][2,6]naphthyridin-9-carboxamide]
35 nM	0.5	1560 nM	Nc1nc2ccc(C(=O)N(CC3CC3)[C@@H]3CCc4cc(C(F)(F)F)ccc43)cc2c2cnccc12 [Example 219, (R)-5-amino-N-(cyclopropylmethyl)-N-(5-(trifluoromethyl)-2,3-dihydro-1H-inden-1-yl)benzo[c][2,6]naphthyridin-9-carboxamide]
2 nM		78 nM	Cn1cc(N(C(=O)c2cc3c4c(c(N)nc3cc2F)COC4)[C@@H]2COc3cc(C(F)(F)F)ccc32)cn1 [Example 201, (S)-4-amino-7-fluoro-N-(1-methyl-1H-pyrazol-4-yl)-N-(6-(trifluoromethyl)-2,3-dihydrobenzofuran-3-yl)-1,3-dihydrofuro[3,4-c]quinolin-8-carboxamide]
13 nM		145 nM	Cc1cc2nc(N)c3ccncc3c2cc1C(=O)N(CC1CC1)[C@@H]1COc2nc(C(F)(F)F)ccc21 [Example 230, (S)-5-amino-N-(cyclopropylmethyl)-8-methyl-N-(6-(trifluoromethyl)-2,3-dihydrofuro[2,3-b]pyridin-3-yl)benzo[c][2,6]naphthyridin-9-carboxamide]
4 nM		130 nM	C[C@H]1OCc2c1c(N)nc1cc(F)c(C(=O)N(c3cnn(C)c3)[C@@H]3COc4nc(C(F)(F)F)ccc43)cc21 [Example 208, (R)-4-amino-7-fluoro-3-methyl-N-(1-methyl-1H-pyrazol-4-yl)-N-((S)-6-(trifluoromethyl)-2,3-dihydrofuro[2,3-b]pyridin-3-yl)-1,3-dihydrofuro[3,4-c]quinolin-8-carboxamide]
